Results: patent US20060275289A1, “Preventive or remedy for inflammatory bowel diseases containing anti-cd81 antibody as the active ingredient” (priority 2003, published 2006)

Assays:
[1] = tested on: TNBS-induced colitis mouse; experiment: TNBS (2,4,6-trinitrobenzenesulfonic acid)-induced mouse colitis model; assay type: in vivo; details: antibody 0.1 mg/head i.p. on division day and day 2, SSZ 200 mg/kg orally once daily
Procedure: 0.5 g of egg albumin (OVA: manufactured by Sigma) and 0.5 g of K2CO3 (manufactured by Nacalai Tesque) were dissolved in 25 ml of distilled water for injection (OVA solution). 0.5 g of 2,4,6-trinitrobenzenesulfonic acid (TNBS: manufactured by Nacalai Tesque) was dissolved in 25 ml of 0.1 M K2CO3 (TNBS solution). The OVA solution and the TNBS solution were mixed, and the mixture was stirred overnight at room temperature. The stirred solution was dialyzed against 0.01 M NaHCO3 (manufactured by Nacalai Tesque) through a dialyzer (Spectra/Por Membrane MWCO:10,000, manufactured by Spectrum Medical Industries Inc.). The dialyzate was subjected to protein quantitative determination by BCA Protein Assay Reagent (manufactured by Pierce).
A 1:1 emulsion of complete Freunt adjuvant (CFA: manufactured by Difco Laboratories) and 2 mg/ml of TNP-OVA was subcutaneously injected (sensitized) into the back of a 5-week-old SJL/J mouse (SJL/JorlIcoCrj, male, supplied by Nippon Charles River) at a rate of 0.1 ml/head. […]
The symptom of colitis from the division day to day 5 after the division was observed. The symptom of colitis was scored according to the conditions of stool [normal stool (score:0), loose stool (score:1) and diarrhea (score:2)]. […]
On the final day of the experiment, after euthanasia with a high concentration of CO2, a large bowel was extracted, and the length thereof was measured. […]

[2] = tested on: IBD-pathogenic cells (mesenteric lymph node cells and spleen cells of TNBS colitis mouse stimulated with Staphylococcal enterotoxin B); assay type: cell-based
intracellular IFN-γ = assay type: cell-based, mouse; details: SEB 1 μg/ml
normal mice = details: cells incubated 48 hours with 0.2 μg/ml SEB and 10 μM of compound A (condition C); cited from earlier work
[3] = rate of compound-reacted cells for 1% of the cell population, 10 μM compound A

O=C(O)c1cc(/N=N/c2ccc(S(=O)(=O)Nc3ccccn3)cc2)ccc1O [SSZ, sulfasalazine]
Intestinal Length mm(S.D) ([1]; large bowel length, day 5 after division, control 87.8 (10.3), Dunnet test * 0.01<p<0.05, ** p<0.01): 103.1 (8.3)** mm | Symptom of colitis (S.D) ([1]; stool score 0-2, SJL/J mice, control 1.75 (0.46), Steel test * 0.01<p<0.05): 0.71 (0.71)*

Clc1c(C2(c3ccc(N4CCOCC4)cc3)CCC2)nn2c1NCCC2 [compound A, 3-chloro-2-[1-(4-morpholin-4-ylphenyl)cyclobutyl]-4,5,6,7-tetrahydropyrazolo[1,5-a]pyrimidine]
Gene chip expression signal, CD81 (101495_at) [2]: 195.1 | Gene chip expression signal, CDw40 (92962_at) [2]: 63.9 | Gene chip expression signal, DAP12 (100397_at) [2]: 1144.2 | Gene chip expression signal, IL-9 (96574_at) [2]: 96.4 | Gene chip expression signal, IL-10Rβ (99491_at) [2]: 1000.9 | Gene chip expression signal, IL-17 (99349_at) [2]: 172.4 | Gene chip expression signal, Integrin β1 (100124_r_at) [2]: 149.4 | Gene chip expression signal, Lymphotoxin α (102630_s_at) [2]: 220.6 | Gene chip expression signal, Paired-Ig-like receptor Al (100328_s_at) [2]: 791.2 | Gene chip expression signal, TCRV γ4 (102745_at) [2]: 33.1 | IFN-γ gene expression (DNA chip analysis) [2]: decreased | Compound-reacted cells/presence rate, cell surface marker CD3 (intracellular IFN-γ; [3]): 1.1 | Compound-reacted cells/presence rate, cell surface marker CD4 (intracellular IFN-γ; [3]): 0.8 | Compound-reacted cells/presence rate, cell surface marker CD40 (intracellular IFN-γ; [3]): 2.7 | Compound-reacted cells/presence rate, cell surface marker CD40L in CD3 (intracellular IFN-γ; [3]): 0.8 | Compound-reacted cells/presence rate, cell surface marker CD81 in CD3 (intracellular IFN-γ; [3]): 11.1 | Compound-reacted cells/presence rate, cell surface marker CD49d (intracellular IFN-γ; [3]): 2.4 | Compound-reacted cells/presence rate, cell surface marker TCRV β3 (intracellular IFN-γ; [3]): 0 | Compound-reacted cells/presence rate, cell surface marker TCRV γδ (intracellular IFN-γ; [3]): 4.4 | Compound-reacted cells (%), cell surface marker CD40L in CD3 (intracellular IFN-γ; share of intracellular IFN-γ-positive cells reduced by compound A (total reduction = 100), 10 μM, presence rate 3.94%): 3.3% | Compound-reacted cells (%), cell surface marker CD81 in CD3 (intracellular IFN-γ; share of intracellular IFN-γ-positive cells reduced by compound A (total reduction = 100), 10 μM, presence rate 4.67%): 51.7% | Compound-reacted cells (%), cell surface marker TCRV γδ (intracellular IFN-γ; share of intracellular IFN-γ-positive cells reduced by compound A (total reduction = 100), 10 μM, presence rate 5.39%): 23.8% | Compound-reacted cells (%), cell surface marker CD40 (intracellular IFN-γ; share of intracellular IFN-γ-positive cells reduced by compound A (total reduction = 100), 10 μM, presence rate 9.14%): 24.3% | Compound-reacted cells (%), cell surface marker CD49d (intracellular IFN-γ; share of intracellular IFN-γ-positive cells reduced by compound A (total reduction = 100), 10 μM, presence rate 16.4%): 39.6% | Compound-reacted cells (%), cell surface marker CD4 (intracellular IFN-γ; share of intracellular IFN-γ-positive cells reduced by compound A (total reduction = 100), 10 μM, presence rate 45.7%): 55.6% | Compound-reacted cells (%), cell surface marker CD3 (intracellular IFN-γ; share of intracellular IFN-γ-positive cells reduced by compound A (total reduction = 100), 10 μM, presence rate 92.1%): 103.4% | Compound-reacted cells (%), cell surface marker TCRV β3 (intracellular IFN-γ; share of intracellular IFN-γ-positive cells reduced by compound A (total reduction = 100), 10 μM, presence rate 100%): 0% | induction of the symptom of colitis by cells transferred into normal mice (normal mice): do not induce the symptom of colitis
